Measured values from patent US12226405B2, “Compounds and compositions for inhibiting the activity of HIF2-alpha and their methods of use” (Novartis AG, priority 2020, dated 2025).

Legend:
[1] = test system: HIF2α-dependent transcription in 786-O-HRE-Luc cells; experiment: In vitro cellular hypoxia response element (HRE) reporter gene assay (RGA) for HIF2α; assay type: cell-based, human; settings: 24 hours incubation
Description: (§1) Stock solutions of compounds were prepared at a concentration of 10 mM in DMSO and stored at 4° C. Where necessary to afford a full dose-response curve, the stock solutions were pre-diluted in DMSO to 1,000-fold the desired reduced start concentration. On the day after cell seeding, eleven 2-fold serial dilutions of each compound were dispensed directly into the cell assay plates using either HP 300D non-contact Digital Dispenser (TECAN) or a ATS100 acoustic dispenser (EDC Biosystems).
The ability of compounds to inhibit HIF2α- and HIF1α-dependent transcription was assessed in 786-O-HRE-Luc and RCC4-HRE-Luc cells, respectively. The putative unselective inhibition of firefly luciferase activity or expression was assessed in 786-O-UB6-Luc and RCC4-UB6-Luc cells, respectively. The reporter lines were generated as follows: 786-O (RRID: CVCL_1051) and RCC4 (RRID: CVCL_0498) clear cell renal carcinoma cell lines were obtained from ATCC and Celeste Simon (University of Pennsylvania), respectively. Either cell line was transduced with a lentiviral vector in which the expression of a PEST-destabilized version of firefly-luciferase is under the control of either a minimal promoter coupled to four copies of a minimal hypoxia response element (HRE) sequence (pLenti 4×HRE Luc PEST), or a promoter from the house-keeping UBC gene (pLenti UB6 Luc PEST). In short, for the construction of the pLenti 4×HRE Luc PEST vector, 4×HRE DNA oligonucleotides were synthesized, annealed and cloned into pGL4.27 plasmid vector (Promega) predigested with NheI and HindIII restriction enzymes. The sequence of the two DNA oligonucleotides was as follows: NheI 4×HRE HindIII FWD: […] (SEQ ID NO: 8); NheI 4×HRE HindIII REV […] (SEQ ID NO: 9). The 4×HRE Luc PEST fragment was then PCRed from this plasmid with restriction enzyme sites NheI and XhoI at the two ends, and inserted into pLenti6/BLOCK iT DEST (Thermo Fisher Scientific) predigested with NheI and XhoI restriction enzymes. For the construction of the pLenti UB6 Luc PEST vector, the Luc PEST sequence was PCRed from pGL4.27 (Promega) using EcoRV and XhoI restriction enzymes at the two ends, and inserted into pLenti6/UBC/V5/DEST (Thermo Fisher Scientific) predigested with the same enzymes. 786-O and RCC4 cells (300,000 per well of a 6 well plate) were infected in the presence of 10 μg/ml polybrene with lentivirus harvested two days after transfection of HEK293-FT (ThermoFisher Scientific #R70007) cells (80% confluent in a 100 cm^2 dish) with a mix of 1.5 ml OptiMEM (ThermoFisher Scientific #31985062) containing 3 μg of the desired plasmids and 9 μl of ViralPower Packaging mix (ThermoFisher Scientific #K497500), and 1.5 ml OptiMEM containing 36 μl Lipofectamine 2000 (ThermoFisher Scientific #11668019). Successfully infected cells were selected using blasticidin (Gibco #A11139-03) at a final concentration of 5 μg/ml. The resulting stable cell lines were named 786-O pLenti 4×HRE Luc PEST (short: 786-O-HRE-Luc), 786-O pLenti UB6 Luc PEST (short: 786-O-UB6-Luc), RCC4 pLenti 4×HRE Luc PEST (short: RCC4-HRE-Luc) and RCC4 pLenti UB6 Luc PEST (short: RCC4-UB6-Luc). All 4 cell lines were maintained in growth medium composed of DMEM (GIBCO #11995-065), 2 mM L-Glutamine (BioConcept #5-10K50-H), 10% fetal calf serum (Gibco #A31608-01), 1× Penicillin/Streptomycin (BioConcept #4-01F00-H), 1 mM Sodium pyruvate (BioConcept #5-60F00-H) and 5 μg/ml blasticidin (Gibco #A11139-03) at 37° C. in a humidified 5% CO2 incubator.
For the reporter gene assay, the individual cell lines were seeded at 2,500 cells/20 μL/well into white-wall, clear-bottom 384-well plates (Greiner #781098) and incubated over night at 37° C. prior to addition of serial compound dilutions as described above. […]

[2] = target: HIF2α PAS-B domain (236-350, biotinylated on the N-terminus) (Homo sapiens (Human), UniProt Q99814)
Description: The assay buffer contained 50 mM Tris-HCl pH7 (Sigma), 20 mM NaCl (Fluka), 0.02% BSA (Sigma), 0.005% Triton X-100 (Pierce) and 1 mM DTT (Fluka). After a 30 min incubation period, 5 μL Streptavidin PVT SPA Beads (Perkin Elmer) at 1.2 mg/mL, diluted in the buffer, were added.

[3] = test system: HIF2α-regulated expression of the endogenous target gene hEGLN3 in 786-O cells; experiment: Cellular iScript assay for HIF2α (quantitative RT-PCR of hEGLN3); assay type: cell-based, human
Description: as §1
Compound-mediated modulation of the HIF2α-regulated expression of the endogenous target gene hEGLN3 (OMIM: 606426), as well as beta-actin (OMIM: 102630) as a house-keeping control, was assess in 786-O cells (RRID CVCL_1051) using a quantitative RT-PCR approach. In short, 786-O cells were maintained in growth medium composed of DMEM (GIBCO #11995-065), 2 mM L-Glutamine (BioConcept #5-10K50-H), 1× Penicillin/Streptomycin (BioConcept #4-01F00-H), 10% fetal calf serum (Gibco #A31608-01), 1 mM Sodium pyruvate (BioConcept #5-60F00-H). Cells were seeded at 1,000 cells/20 μL/well into white-wall, clear-bottom 384-well plates (Greiner #781098) and incubated over night at 37° C. prior to addition of serial compound dilutions as described above. Following incubation for 48 hours at 37° C., medium supernatant was discarded and the plate blotted dry by inverting on a tissue. The same procedure was repeated following one wash with 20 μL phosphate-buffered saline. Following addition of 25 μL/well iScript sample preparation reagent (BioRad #170-8899) using a 16-channel Matrix pipette, the plate was incubated for 2 min at room temperature. 20 μL lysate supernatant was then removed and transferred to a new 384 well plate (Costar #3656) and diluted 1:3 by adding 5 μL of the lysate to 10 μL H2O using a Bravo liquid handler (Agilent). 2 μL of the diluted lysate was added to the 8 μL of a mastermix containing 5 μL iTaq Universal Probes One-step kit (BioRad #172-5141), 0.25 μL iScript reverse transcription supermix (BioRad #1708840), 0.25 μL 40×HEX-ZEN-labeled TaqMan probe for beta-actin (IDT #Hs.PT.39a.22214847: Probe 5′ HEX-TCA TCC ATG/ZEN/GTG AGC TGG CGG-3′ (SEQ ID NO: 2) Iowa Black FQ, Primer 1: ACA GAG CCT CGC CTT TG (SEQ ID NO: 3); Primer 2: CCT TGC ACA TGC CGG (SEQ ID NO: 4) AG), 0.25 μL, 40×FAM-ZEN-labeled TaqMan probe for hEGLN3 (IDT #Hs.PT.58.189348: Probe 5′ 6-FAM-TTT GGC TTC/ZEN/TGC CCT TTC TTC AGC-3′ (SEQ ID NO: 5) Iowa Black FQ, Primer 1: CACGGTCAGTCTTCAGTGAG (SEQ ID NO: 6); Primer 2: CGCAACCAGATATGCTATGACT (SEQ ID NO: 7)), 2.25 μL RNase-free water, prelaid in a 384 well plate (ABI #4309849) using a 16-channel Matrix pipette. The plate was sealed with a PCR-compatible optical film (MicroAmp, ABI #4360954) and centrifuged (1500 rpm, 5 min, +4° C.) to collect all reagents in the bottom of the well and to remove bubbles. The plate content was amplified on a 7900HT thermal cycler (ABI) using the following conditions: Step 1: 50° C. for 10 min, Step 2: 95° C. for 3 min, Step 3 (40×): 95° C. for 15 s, 60° C. for 1 min. ROX (reaction volume 10 μL) was used as a passive reference. Data were collected with manual adjustment of the Ct threshold (beta-actin: 0.046, hEGLN3: 0.06) and were analyzed using the 2^(−ΔΔCt) method. Thus, for each sample, the following values were calculated: 2^(−Ct)a for beta-actin, 2^(−Ct)e for EGLN3, and 2^(−ΔCt) calculated as (2^(−Ct)e/2^(−Ct)a). The mean 2^(−ΔCt) as well as the corresponding standard deviation was calculated for each sample. Taking the DMSO-treated sample as a reference, the 2^(−ΔΔCt) for each sample was calculated as follows: 2^(−ΔΔCt)=2^(−ΔCt)sample/(2^(−ΔCt)DMSO). After calculating differential expression as 2^(−ΔΔCt) for each sample, it was then expressed as a percentage (×100) to obtain a dose-response curve in % of DMSO control and IC50s were calculated using a four-parametric fit model.

[4] = Homo sapiens, 786-0, 48 hours incubation

Sequence of HIF2α PAS-B domain (236-350, biotinylated on the N-terminus) (Q99814 236-350): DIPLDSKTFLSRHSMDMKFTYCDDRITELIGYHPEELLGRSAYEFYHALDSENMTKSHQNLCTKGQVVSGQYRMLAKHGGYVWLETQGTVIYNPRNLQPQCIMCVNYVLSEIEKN

Row | Compound | IC50 ([1]; Homo sapiens) [nM] | IC50 [2] [nM] | IC50 [3, 4] [nM] | IC50 [1] [nM] | IC50 ([3]; 48 hours incubation) [nM]
1 | Fc1c(Br)ccc2c1CCC[C@@]21CN2C=C(C(F)(F)F)C=C(Cl)C2=N1 [Example 16, (S)-6′-bromo-8-chloro-5′-fluoro-6-(trifluoromethyl)-3′,4′-dihydro-2′H,3H-spiro[imidazo[1,2-a]pyridine-2,1′-naphthalene]] | 372 | ≤ 6 | 43 | – | –
2 | O=C1c2c(ccc(Br)c2F)[C@]2(CN3C=C(C(F)(F)F)C=C(OC(F)F)C3=N2)CC1(F)F [Example 17, (S)-6′-bromo-8-(difluoromethoxy)-3′,3′,5′-trifluoro-6-(trifluoromethyl)-2′H,3H-spiro[imidazo[1,2-a]pyridine-2,1′-naphthalen]-4′(3′H)-one] | 466 | 62 | 199 | – | –
3 | O=C1c2c(F)cccc2[C@@]2(C[C@@H]1F)CN1C=C(C(F)(F)F)C=C(OC(F)F)C1=N2 [Example 21] | – | 36 | – | 1100 | 121
4 | N#Cc1ccc2c(c1F)CCC[C@@]21CN2C=C(C(F)(F)F)C=C(OC(F)F)C2=N1 [Example 22, (S)-8-(difluoromethoxy)-5′-fluoro-6-(trifluoromethyl)-3′,4′-dihydro-2′H,3H-spiro[imidazo[1,2-a]pyridine-2,1′-naphthalene]-6′-carbonitrile] | 185 | 8 | 37 | – | –
5 | Fc1cccc2c1C(F)(F)CC[C@@]21CN2C=C(C(F)(F)F)C=C(OC(F)F)C2=N1 [Example 23, (S)-8-(difluoromethoxy)-4′,4′,5′-trifluoro-6-(trifluoromethyl)-3′,4′-dihydro-2′H,3H-spiro[imidazo[1,2-a]pyridine-2,1′-naphthalene]] | 92 | 4 | 30 | – | –
6 | N#Cc1ccc2c(c1F)[C@@H](F)CC[C@@]21CN2C=C(C(F)(F)F)C=C(OC(F)F)C2=N1 [Example 25, (1′S,4'S)-8-(difluoromethoxy)-4′,5′-difluoro-6-(trifluoromethyl)-3′,4′-dihydro-2′H,3H-spiro[imidazo[1,2-a]pyridine-2,1′-naphthalene]-6′-carbonitrile] | 202 | 19 | 83 | – | –
7 | N#CC1=CN2C[C@@]3(CCCc4c(F)cccc43)N=C2C(OC(F)F)=C1 [Example 26, (S)-8-(difluoromethoxy)-5′-fluoro-3′,4′-dihydro-2′H,3H-spiro[imidazo[1,2-a]pyridine-2,1′-naphthalene]-6-carbonitrile] | 144 | ≤ 6 | 34 | – | –
8 | [2H]C1([2H])CC[C@@]2(CN3C=C(C#N)C=C(OC(F)F)C3=N2)c2cccc(F)c21 [Example 27, d2-(S)-8-(difluoromethoxy)-5′-fluoro-3′,4′-dihydro-2′H,3H-spiro[imidazo[1,2-a]pyridine-2,1′-naphthalene]-6-carbonitrile] | 188 | 12 | 102 | – | –
9 | Fc1cccc2c1CCC[C@@]21CN2C=C(C(F)(F)F)C=C(OC(F)F)C2=N1 [Example 28, (S)-8-(difluoromethoxy)-5′-fluoro-6-(trifluoromethyl)-3′,4′-dihydro-2′H,3H-spiro[imidazo[1,2-a]pyridine-2,1′-naphthalene]] | 169 | 5 | 66 | – | –
10 | FC1=CC(C(F)(F)F)=CN2C[C@@]3(CCCc4c3ccc(F)c4F)N=C12 [Example 29, (S)-5′,6′,8-trifluoro-6-(trifluoromethyl)-3′,4′-dihydro-2′H,3H-spiro[imidazo[1,2-a]pyridine-2,1′-naphthalene]] | 1310 | 8 | 93 | – | –
11 | COC1=CC(C(F)(F)F)=CN2C[C@@]3(CCC(F)(F)c4c3ccnc4Cl)N=C12 [Example 30, (S)-1′-chloro-8′,8′-difluoro-8-methoxy-6-(trifluoromethyl)-7′,8′-dihydro-3H,6′H-spiro[imidazo[1,2-a]pyridine-2,5′-isoquinoline]] | 1350 | 27 | 129 | – | –
